Measurements from patent publication US20190002436A1, “RESPIRATORY SYNCYTIAL VIRUS INHIBITORS” (MEDIVIR AB, priority 2015, published 2019).

System: RSV (Long)
Assay: RSV cytopathic effect (CPE)-based viral replication assay
Assay type: cell-based, respiratory syncytial virus (RSV)
Settings: human respiratory syncytial virus, HEp-2, 72 h, HEp-2 cells infected with RSV Long at MOI 0.015; 3 days at 37° C.; cell viability by CellTiter-Glo luminescence; read-out: EC50 (nm)
Summary of the method: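 HEp-2 cells, 2,500 per well in DMEM with 2% heat-inactivated FBS, treated with 10-point compound dilutions and infected with RSV Long at MOI 0.015. After 3 days at 37 °C, 5% CO2, viability read by CellTiter-Glo luminescence; EC50 derived from CPE data.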

Row | EC50 [nM] | Compound
1 | 41 | COC(=O)N1CCC(n2c(=O)n(Cc3ncc4cc(C#N)ccc4c3CCCCO)c3cnccc32)CC1 [Example 23b, methyl 4-(3-((7-cyano-4-(4-hydroxybutyl)isoquinolin-3-yl)methyl)-2-oxo-2,3-dihydro-1H-imidazo[4,5-c]pyridin-1-yl)piperidine-1-carboxylate]
2 | 5.7 | NC1(C(=O)N2CCC3(CC2)C(=O)N(Cc2ncc4ccccc4c2-c2cn[nH]c2)c2cnccc23)CC1 [Example 2030]
3 | 4.7 | CN(C)C(=O)c1ccc(-c2c(CN3C(=O)C4(CCN(C(=O)C5(N)CC5)CC4)c4ccncc43)ncc3ccccc23)cn1 [Example 120, 5-(3-((1-(1-aminocyclopropanecarbonyl)-2′-oxospiro[piperidine-4,3′-pyrrolo[2,3-c]pyridin]-1′(2′H)-yl)methyl)isoquinolin-4-yl)-N,N-dimethylpicolinamide]
4 | 2.6 | CS(=O)(=O)N1CCC2(CC1)C(=O)N(Cc1ncc3ccccc3c1-c1ccncc1)c1cnccc12 [Example 2014]
5 | 1.8 | COC(=O)N1CC2(C1)C(=O)N(Cc1ncc3ccccc3c1-c1ccnc(F)c1)c1ccccc12 [Example 95b, Methyl 1′-((4-(2-fluoropyridin-4-yl)isoquinolin-3-yl)methyl)-2′-oxospiro[azetidine-3,3′-indoline]-1-carboxylate]
6 | 2.6 | CS(=O)(=O)N1CCC2(CC1)C(=O)N(Cc1ncc3cc(F)ccc3c1-c1cccnc1)c1cnccc12 [Example 2034]
7 | 3.4 | CS(=O)(=O)N1CCC(n2c(=O)n(Cc3ncc4ccccc4c3CCCCO)c3cnccc32)CC1 [Example 18c, 3-((4-(4-hydroxybutyl)isoquinolin-3-yl)methyl)-1-(1-(methylsulfonyl)piperidin-4-yl)-1H-imidazo[4,5-c]pyridin-2(3H)-one]
